Patent US20240066115A1, “DETERMINATION AND USES OF CD8+ T CELL EPITOPES” (priority 2021, published 2024)
Where a SMILES comes first, the peptide text is derived from it.

Assays:
GL261/vIII target cells = test: Cytotoxic T cell killing assay, T cells from vaccinated mice; conditions: 50:1 effector to target ratio
GL261/vIII = test: Intracranial glioma model GL261/vIII, peptide vaccination; type: in vivo; conditions: candidate peptides as individual vaccines
Source text: Y6-pepvIII is effective in an intracranial glioma model. Because of its significant effect on survival in the EGFRvIII subcutaneous tumor model, we selected Y6-pepvIII for in-depth analysis. First, we tested this vaccine in a model that more accurately represented human gliomas. We utilized the commonly employed murine glioma 261 (GL261) intracranial tumor model (30) which was transfected with the EGFRvIII cDNA to yield a line with high expression, GL261/vIII. We explored intracranial injection protocols that would lead to reproducible survival curves and identified conditions where 90% of the animals survived 23-29 days. To compare vaccine efficacy, mice received either Montanide (ISA51) alone, 100 ug of KLH with Montanide, 100 ug of KLH conjugated to pepvIII or Y6-pepvIII in Montanide following the vaccination schedule outlined in FIG. 2A. While KLH treatment had no measurable impact on survival, vaccination with the pepvIII induced a modest but statistically significant 23% increase in survival vs. control mice (FIG. 2B; median survival: Control=26.0 days, KLH=27 days, pepvIII=32 days, p<0.0001).
Intracranial model. Six to 8-week old C57BL/6J mice (Jackson Laboratories, Bar Harbor, ME), had gliomas established by stereotactically injecting 10,000 GL261/vIII […] CT2A/vIII cells into the left striatum (2 mm posterior to the coronal suture and 2 mm lateral to the sagittal suture) on day 0 of the experimental process as previously described. Briefly, mice were anesthetized with isoflurane (4%) and placed in the stereotactic frame. An incision was made, and a burr hole was drilled over the striatum. GL261/vIII or CT2A/vIII cells were injected at the above stated coordinates using a Hamilton Microsyringe controlled by an automated micro-pump injection system. Mice were assigned to treatment groups randomly and tumor progression was monitored by bioluminescent signal as detected by the IVIS imaging system (Caliper Life Sciences, Hopkinton, MA).
For survival experiments, each treatment group consisted of 6 to 15 mice. […]

Row | Molecule | cytotoxic capacity of T cells of vaccinated mice (GL261/vIII target cells) | cytotoxic activity against GL261/wt target cells (GL261/wt target cells) | increase in survival relative to KLH treated control mice (GL261/vIII)
1 | CC(C)C[C@H](N)C(=O)N[C@@H](CCC(=O)O)C(=O)N[C@@H](CCC(=O)O)C(=O)N[C@@H](CCCCN)C(=O)N[C@@H](CCCCN)C(=O)N[C@@H](Cc1ccc(O)cc1)C(=O)N[C@@H](CC(N)=O)C(=O)N[C@@H](Cc1ccc(O)cc1)C(=O)N[C@H](C(=O)N[C@H](C(=O)N[C@H](C(=O)N[C@@H](CC(=O)O)C(=O)N[C@@H](Cc1c[nH]cn1)C(=O)O)[C@@H](C)O)C(C)C)C(C)C [Y6-pepvIII] (H-LEEKKYNYVVTDH-OH) | increased cytotoxic capacity | no cytotoxic activity | 
2 | CC(C)C[C@H](N)C(=O)N[C@@H](CCC(=O)O)C(=O)N[C@@H](CCC(=O)O)C(=O)N[C@@H](CCCCN)C(=O)N[C@@H](CCCCN)C(=O)NCC(=O)N[C@@H](CC(N)=O)C(=O)N[C@@H](Cc1ccc(O)cc1)C(=O)N[C@H](C(=O)N[C@H](C(=O)N[C@H](C(=O)N[C@@H](CC(=O)O)C(=O)N[C@@H](Cc1c[nH]cn1)C(=O)O)[C@@H](C)O)C(C)C)C(C)C [pepvIII, reference compound] |  | no cytotoxic activity | 
3 | LEEKKNYV |  |  | 30%
4 | LEEYVVTDH |  |  | 54%
5 | NYVVTDH |  |  | 18%
